Source: patent publication US8143263B2, “Therapeutic agents” (Astrazeneca AB, priority 2008, dated 2012)
pEC50: −log10 of the molar value.

molecular target: T1, recombinant human pancreatic GLK (Homo sapiens, UniProt P35557); assay: biochemical
T1 sequence (P35557 1-465): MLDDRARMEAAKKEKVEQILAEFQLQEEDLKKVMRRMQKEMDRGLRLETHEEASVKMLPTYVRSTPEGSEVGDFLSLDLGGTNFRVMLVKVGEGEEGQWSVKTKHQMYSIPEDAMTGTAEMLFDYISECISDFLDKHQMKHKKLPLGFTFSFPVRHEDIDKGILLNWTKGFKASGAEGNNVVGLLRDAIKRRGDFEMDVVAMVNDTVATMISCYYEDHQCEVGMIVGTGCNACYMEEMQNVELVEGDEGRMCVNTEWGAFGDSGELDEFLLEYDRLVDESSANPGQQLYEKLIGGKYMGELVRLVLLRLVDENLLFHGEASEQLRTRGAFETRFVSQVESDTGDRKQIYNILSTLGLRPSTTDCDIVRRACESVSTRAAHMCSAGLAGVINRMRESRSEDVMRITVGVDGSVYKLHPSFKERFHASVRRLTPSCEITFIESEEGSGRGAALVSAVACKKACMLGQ

Compound | pEC50
CCC(C)C(Sc1ncnc2c1cnn2-c1ccccc1Cl)C(=O)Nc1ccc(C)cn1 (stereo not drawn) [Example 56, 2-{[1-(2-chlorophenyl)-1H-pyrazolo[3,4-d]pyrimidin-4-yl]thio}-3-methyl-N-(5-methylpyridin-2-yl)pentanamide] | 5.51
COCCOCCC(Sc1ncnc2c1cnn2C(C)C)C(=O)Nc1nc(C)cs1 (stereo not drawn) [Example 57, 2-[(1-Isopropyl-1H-pyrazolo[3,4-d]pyrimidin-4-yl)thio]-4-(2-methoxyethoxy)-N-(4-methyl-1,3-thiazol-2-yl)butanamide] | 4.52
COCCOCCC(Sc1ncnc2c1cnn2C(C)C)C(=O)Nc1ccc(C)cn1 (stereo not drawn) [Example 58, 2-[(1-Isopropyl-1H-pyrazolo[3,4-d]pyrimidin-4-yl)thio]-4-(2-methoxyethoxy)-N-(5-methylpyridin-2-yl)butanamide] | 5.71
CCCCC(Sc1ncnc2c1cnn2-c1ccccc1Cl)C(=O)Nc1nc(C)cs1 (stereo not drawn) [Example 59, 2-{[1-(2-chlorophenyl)-1h-pyrazolo[3,4-]pyrimidin-4-yl]thio}-n-(4-methyl-1,3-thiazol-2-yl)hexanamide] | 6.19
COCC(Sc1ncnc2c1cnn2-c1ccccc1Cl)C(=O)Nc1ccc(C)cn1 (stereo not drawn) [Example 62, 2-{[1-(2-Chlorophenyl)-1H-pyrazolo[3,4-d]pyrimidin-4-yl]thio}-3-methoxy-N-(5-methylpyridin-2-yl)propanamide] | 4.92
CCCCCCC(Sc1ncnc2c1cnn2-c1ccccc1Cl)C(=O)Nc1nc(C)cs1 (stereo not drawn) [Example 63, 2-{[1-(2-chlorophenyl)-1H-pyrazolo[3,4-d]pyrimidin-4-yl]thio}-N-(4-methyl-1,3-thiazol-2-yl)octanamide] | < 5.35
CCCCCCC(Sc1ncnc2c1cnn2-c1ccccc1Cl)C(=O)Nc1ccon1 (stereo not drawn) [Example 64, 2-{[1-(2-chlorophenyl)-1H-pyrazolo[3,4-d]pyrimidin-4-yl]thio}-N-isoxazol-3-yloctanamide] | 5.00
CCOC(Sc1ncnc2c1cnn2-c1ccccc1OC)C(=O)Nc1nc(C)cs1 (stereo not drawn) [Example 71, 2-Ethoxy-2-{[1-(2-methoxyphenyl)-1H-pyrazolo[3,4-d]pyrimidin-4-yl]thio}-N-(4-methyl-1,3-thiazol-2-yl)acetamide] | 5.80
CCOC(Sc1ncnc2c1cnn2-c1ccccc1OC)C(=O)Nc1ccon1 (stereo not drawn) [Example 72, 2-Ethoxy-N-isoxazol-3-yl-2-{[1-(2-methoxyphenyl)-1H-pyrazolo[3,4-d]pyrimidin-4-yl]thio}acetamide] | 5.54
COCCC(Oc1ncnc2c1cnn2C(C)C)C(=O)Nc1ccc(C)cn1 (stereo not drawn) [Example 76, 2-[(1-isopropyl-1H-pyrazolo[3,4-d]pyrimidin-4-yl)oxy]-4-methoxy-N-(5-methylpyridin-2-yl)butanamide] | ≤ 4.00
Cc1ccc(NC(=O)C(Oc2ncnc3c2cnn3-c2ccccc2Cl)C(C)C)nc1 (stereo not drawn) [Example 83, 2-(1-(2-chlorophenyl)-1H-pyrazolo[3,4-d]pyrimidin-4-yloxy)-3-methyl-N-(5-methylpyridin-2-yl)butanamide] | 6.06
Cc1ccc(NC(=O)[C@@H](Oc2ncnc3c2cnn3-c2ccccc2Cl)C(C)C)nc1 [Example 84, (2S)-2-(1-(2-chlorophenyl)-1H-pyrazolo[3,4-d]pyrimidin-4-yloxy)-3-methyl-N-(5-methylpyridin-2-yl)butanamide] | 6.33
Cc1ccc(NC(=O)[C@H](Oc2ncnc3c2cnn3-c2ccccc2Cl)C(C)C)nc1 [Example 85, (2R)-2-(1-(2-chlorophenyl)-1H-pyrazolo[3,4-d]pyrimidin-4-yloxy)-3-methyl-N-(5-methylpyridin-2-yl)butanamide] | 5.02
Cc1ccc(NC(=O)[C@@H](Oc2ncnc3c2cnn3-c2ncccc2Cl)C(C)C)nc1 [Example 86, (2S)-2-(1-(3-chloropyridin-2-yl)-1H-pyrazolo[3,4-d]pyrimidin-4-yloxy)-3-methyl-N-(5-methylpyridin-2-yl)butanamide] | 5.82
COC[C@H](Oc1ncnc2c1cnn2-c1ccccc1Cl)C(=O)Nc1ccc(C)cn1 [Example 87, (2S)-2-(1-(2-chlorophenyl)-1H-pyrazolo[3,4-d]pyrimidin-4-yloxy)-3-methoxy-N-(5-methylpyridin-2-yl)propanamide] | 6.49
COC[C@@H](Oc1ncnc2c1cnn2-c1ccccc1Cl)C(=O)Nc1ccc(C)cn1 [Example 88, (2R)-2-(1-(2-chlorophenyl)-1H-pyrazolo[3,4-d]pyrimidin-4-yloxy)-3-methoxy-N-(5-methylpyridin-2-yl)propanamide] | 5.29
COC[C@H](Oc1ncnc2c1cnn2-c1ncccc1Cl)C(=O)Nc1ccc(C)cn1 [Example 89, (2S)-2-(1-(3-chloropyridin-2-yl)-1H-pyrazolo[3,4-d]pyrimidin-4-yloxy)-3-methoxy-N-(5-methylpyridin-2-yl)propanamide] | 5.82

Compound | pEC50
COC[C@H](Oc1ncnc2c1cnn2-c1ncccc1Cl)C(=O)Nc1cnc(C)cn1 [Example 90, (2S)-2-(1-(3-chloropyridin-2-yl)-1H-pyrazolo[3,4-d]pyrimidin-4-yloxy)-3-methoxy-N-(5-methylpyrazin-2-yl)propanamide] | 5.27
Cc1ccc(NC(=O)[C@H](COC(C)C)Oc2ncnc3c2cnn3-c2ncccc2Cl)nc1 [Example 91, (2S)-2-(1-(3-chloropyridin-2-yl)-1H-pyrazolo[3,4-d]pyrimidin-4-yloxy)-3-isopropoxy-N-(5-methylpyridin-2-yl)propanamide] | 6.80
Cc1cnc(NC(=O)[C@H](COC(C)C)Oc2ncnc3c2cnn3-c2ncccc2Cl)cn1 [Example 92, (2S)-2-(1-(3-chloropyridin-2-yl)-1H-pyrazolo[3,4-d]pyrimidin-4-yloxy)-3-isopropoxy-N-(5-methylpyrazin-2-yl)propanamide] | 6.38
Cc1nsc(NC(=O)[C@H](COC(C)C)Oc2ncnc3c2cnn3-c2ncccc2Cl)n1 [Example 93, (2S)-2-(1-(3-chloropyridin-2-yl)-1H-pyrazolo[3,4-d]pyrimidin-4-yloxy)-3-isopropoxy-N-(3-methyl-1,2,4-thiadiazol-5-yl)propanamide] | 5.48
Cc1cnc(NC(=O)[C@@H](Oc2ncnc3c2cnn3-c2ncccc2Cl)C(C)C)cn1 [Example 94, (2S)-2-(1-(3-chloropyridin-2-yl)-1H-pyrazolo[3,4-d]pyrimidin-4-yloxy)-3-methyl-N-(5-methylpyrazin-2-yl)butanamide] | 5.04
COC[C@H](Oc1ncnc2c1cnn2-c1ccc(F)cc1Cl)C(=O)Nc1cnc(C)cn1 [Example 95, (2S)-2-(1-(2-chloro-4-fluorophenyl)-1H-pyrazolo[3,4-d]pyrimidin-4-yloxy)-3-methoxy-N-(5-methylpyrazin-2-yl)propanamide] | 4.41
COC[C@H](Oc1ncnc2c1cnn2-c1ccc(F)cc1Cl)C(=O)Nc1ccc(C)cn1 [Example 96, (2S)-2-(1-(2-chloro-4-fluorophenyl)-1H-pyrazolo[3,4-d]pyrimidin-4-yloxy)-3-methoxy-N-(5-methylpyridin-2-yl)propanamide] | 5.89
COC[C@H](Oc1ncnc2c1cnn2-c1ccccc1C#N)C(=O)Nc1ccc(C)cn1 [Example 97, (2S)-2-(1-(2-cyanophenyl)-1H-pyrazolo[3,4-d]pyrimidin-4-yloxy)-3-methoxy-N-(5-methylpyridin-2-yl)propanamide] | 5.92
Cc1ccc(NC(=O)[C@H](COC(C)C)Oc2ncnc3c2cnn3-c2ccccc2C#N)nc1 [Example 97a, (2S)-2-[1-(2-cyanophenyl)pyrazolo[4,5-e]pyrimidin-4-yl]oxy-N-(5-methylpyridin-2-yl)-3-propan-2-yloxypropanamide] | 6.34
Cc1ccc(NC(=O)[C@H](COC(C)C)Oc2ncnc3c2cnn3-c2ccccc2Cl)nc1 [Example 98, (2S)-2-(1-(2-chlorophenyl)-1H-pyrazolo[3,4-d]pyrimidin-4-yloxy)-3-isopropoxy-N-(5-methylpyridin-2-yl)propanamide] | 6.96
Cc1ccc(NC(=O)[C@@H](COC(C)C)Oc2ncnc3c2cnn3-c2ccccc2Cl)nc1 [Example 99, (2R)-2-(1-(2-chlorophenyl)-1H-pyrazolo[3,4-d]pyrimidin-4-yloxy)-3-isopropoxy-N-(5-methylpyridin-2-yl)propanamide] | 5.03
Cc1nsc(NC(=O)[C@H](COC(C)C)Oc2ncnc3c2cnn3-c2ccccc2Cl)n1 [Example 100, (2S)-2-[1-(2-Chlorophenyl)pyrazolo[4,5-e]pyrimidin-4-yl]oxy-N-(3-methyl-1,2,4-thiadiazol-5-yl)-3-propan-2-yloxypropanamide] | 6.00
COC[C@H](Oc1ncnc2c1cnn2-c1ccccc1Cl)C(=O)Nc1nc(C)ns1 [Example 101, (2S)-2-(1-(2-Chlorophenyl)-1H-pyrazolo[3,4-d]pyrimidin-4-yloxy)-3-methoxy-N-(3-methyl-1,2,4-thiadiazol-5-yl)propanamide] | 5.30
COCC[C@H](Oc1ncnc2c1cnn2-c1ncccc1Cl)C(=O)Nc1ccc(C)cn1 [Example 102, (2S)-2-(1-(3-Chloropyridin-2-yl)-1H-pyrazolo[3,4-d]pyrimidin-4-yloxy)-4-methoxy-N-(5-methylpyridin-2-yl)butanamide] | 6.89
CCOC[C@H](Oc1ncnc2c1cnn2-c1ncccc1Cl)C(=O)Nc1ccc(C)cn1 [Example 103, (2S)-2-[1-(3-Chloropyridin-2-yl)pyrazolo[4,5-e]pyrimidin-4-yl]oxy-3-ethoxy-N-(5-methylpyridin-2-yl)propanamide] | 6.55
CCOC[C@H](Oc1ncnc2c1cnn2-c1ncccc1Cl)C(=O)Nc1cnc(C)cn1 [Example 104, (2S)-2-[1-(3-Chloropyridin-2-yl)pyrazolo[4,5-e]pyrimidin-4-yl]oxy-3-ethoxy-N-(5-methylpyrazin-2-yl)propanamide] | 5.92
